System: microorganisms
Assay: Antimicrobial effectiveness, overall conclusion over the four USP test organisms
Format: cell-based
Settings: after adventitious, extrinsic contamination
Source text: Tables 2 through 5 compare the antimicrobial effectiveness of the cysteinate HCl formulation with that of Diprivan® and generic propofol formulation, as well as unpreserved Intralipid®.

Cl.N[C@@H](CS)C(=O)O [cysteine/cysteinate HCl, Cysteine HCl]
time for which significant growth of microorganisms is prevented: at least 24 hours
